Measurements published in patent US10543216B2, “Modus of administration of iron, and new formulations adapted for the said goal” (BIOFER S.P.A., priority 2013, dated 2020).
Where two headings read alike, the source gives them in different places.

Assays:
[1] = 100 mg of Fe2+ orally, healthy volunteers, Dresow et al., FIG. 5, cited from earlier work
[2] = randomized clinical study, sublingual administration of 30 mg of Fe2+ to healthy volunteers; assay type: in vivo, human; details: for Serum Fe / Transferrin saturation / Total iron / NTBI (free non transferrin bound iron): 30 mg Fe2+ sublingual (6 sachets of example 6), fasting healthy volunteers n=2, average; for Total iron / NTBI (free non transferrin bound iron): ICP-MS; for NTBI (free non transferrin bound iron): ultrafiltration
Method: The participants were hospitalized for two days prior to administration until the next day and were under medical observation.
The samples were then analyzed with respect to the trend of (average) concentrations of various indicators over time.
Total iron measured in micrograms/dl (ICP-MS)
Free iron by ultrafiltration measured in micromoles/liter (=NTBI) (ICP-MS)
Total iron binding capacity (TIBC) measured in micrograms/dl (column separation, Vitros analyzer)
Transferrin saturation (PTS) measured in %
Serum iron (SI), measured in micrograms/dl, colorimetric method (Vitros analyzer)

[3] = test system: Pig esophageal epithelium; assay: in vitro permeation in the Franz cell (model of sublingual absorption); details: FIG. 2
Method: Sublingual absorption of Fe++ compounds was evaluated by means of in vitro permeation experiments using the Franz cell exemplified in FIG. 1. Pig esophageal epithelium was used as membrane. This experimental model is recognized as valid and reliable in the assessment of sublingual absorption of drugs [I. Diaz Del Consuelo, G. P. Pizzolato, F. Falsom, R. H. Guy, and Y. Jacques.: Evaluation of pig esophageal mucosa as a permeability barrier model for buccosal tissue. J. Pharm. […] Arch. […] Membrane preparation occurred by following the method described here. The esophagi were taken from the animals within one hour after sacrifice. The mucosa was separated from the muscle tissue with a lancet. To separate the epithelium, the mucosa was immersed in distilled water at 60° C. for 2 minutes and then the epithelium was removed from the underlying tissue with the aid of a spatula. The tissues thus prepared were stored at −20° C. until the time of use, when they were thawed to room temperature before being mounted on the vertical diffusion cells of the Franz type, a schematic view of which is shown in FIG. 1. The esophageal epithelium was placed on a regenerated cellulose filter (pore diameter 0.45 μm) with the luminal side facing up, and mounted between the donor and receptor compartments of the Franz cells. […] The exposed surface was 0.6 cm^2. The receptor compartment was filled with approximately 4 ml of physiological solution (0.9% NaCl w/v) and kept under constant magnetic agitation for the entire duration of the experiment. The entire system was thermostat-controlled at 37° C. Sampling of the receptor compartment was performed by drawing 200 μl of receptor solution, which were replaced immediately with an equal volume of fresh physiological solution. The samples were taken at preset time intervals, specifically at 0, 1, 2, 3, 4, 5 and 6 hours.
4 g of powder were suspended in 10 ml of physiological solution and left under agitation for 15 minutes, then the solution was filtered with regenerated cellulose filters (pore diameter 0.45 μm).
6 g of powder were suspended in 10 ml of physiological solution. The suspension was left under magnetic agitation for 25 minutes and then filtered with regenerated cellulose filters (pore diameter 0.45 μm).
7 g of powder were suspended in 6 ml of physiological solution. The suspension was left under magnetic agitation for 1 hour; at the end it was filtered with regenerated cellulose filters (pore diameter 0.45 μm).
An excess of ascorbic acid (2 g) was added to the solution. The suspension was left under magnetic agitation for 30 minutes and after filtration through regenerated cellulose filters (pore diameter 0.45 μm) was used as it was.
4 g of powder were suspended in 10 ml of physiological solution. The suspension was left under magnetic agitation for 15 hours, at the end of which it was filtered with regenerated cellulose filters (pore diameter 0.45 μm).
An excess of powder was suspended in 10 ml of physiological solution. The suspension was left under magnetic agitation for 15 hours, at the end of which it was filtered with regenerated cellulose filters (pore diameter 0.45 μm).

In the case of ferrous ascorbate [Fe++ ascorbate], the “increase in transferrin saturation” value ([1]; after 2 hours) is listed as “approximately 45%”, the “transferrin saturation (absolute)” value ([1]; after two hours) is listed as “approximately 75%” and the Transferrin saturation ([1]; at the time of administration) is listed as “approximately 30%”. The “free iron (NTBI)” value ([1]; within two hours, from 0) was 6.7 µmol/L, the “Serum Fe” value ([2]; time 0 h) was 0 µg/dL and the Transferrin saturation ([2]; time 0 min (at administration)) was roughly 24%. For the same substance, the “Serum Fe” value ([2]; time 0.033 h) was 5.5 µg/dL, the Transferrin saturation ([2]; time 2 min) was 28% and the “Serum Fe” value ([2]; time 0.100 h) was 7 µg/dL. The Transferrin saturation ([2]; time 6 min) was 28%, the “Serum Fe” value ([2]; time 0.200 h) was 6 µg/dL and the Transferrin saturation ([2]; time 12 min) was 28.5%. The “Serum Fe” value ([2]; time 0.330 h) was 10 µg/dL, the Transferrin saturation ([2]; time 20 min) was 26.5% and the “Serum Fe” value ([2]; time 0.500 h) was 24 µg/dL. The Transferrin saturation ([2]; time 30 min) was 36%, the “Serum Fe” value ([2]; time 0.750 h) was 51.5 µg/dL and the Transferrin saturation ([2]; time 45 min) was 40.5%. For the same substance, the “Serum Fe” value ([2]; time 1.000 h) was 72 µg/dL, the Transferrin saturation ([2]; time 60 min) was 50% and the “Serum Fe” value ([2]; time 1.250 h) was 91 µg/dL. For the same substance, the Transferrin saturation ([2]; time 75 min) was 51.5%, the “Serum Fe” value ([2]; time 1.500 h) was 110.5 µg/dL and the Transferrin saturation ([2]; time 90 min) was 60%. For the same substance, the “Serum Fe” value ([2]; time 1.750 h) was 118.5 µg/dL, the Transferrin saturation ([2]; time 105 min) was 49.5% and the “Serum Fe” value ([2]; time 2.000 h) was 129 µg/dL. The Transferrin saturation ([2]; time 120 min (2 hours), listed as Fe2+ (as ascorbate)) was 65.5%, the Transferrin saturation ([2]; time 120 min (2 hours), listed as Fe2+ Ascorbate) was 66.5% and the “increase in transferrin saturation (PTS)” value ([2]; 30 mg of Fe2+ sublingual, healthy volunteers, after 2 hours versus time of administration) was 42.5%. The “free iron (NTBI)” value ([2]; 30 mg of Fe2+ sublingual, healthy volunteers, after 2 hours, from 0) was 0.34 µmol/L, the Total iron ([2]; time 0.00 h) was 0 µg/dL and the Total iron ([2]; time 0.03 h) was -7.4 µg/dL. For the same substance, the Total iron ([2]; time 0.10 h) was 6.2 µg/dL, the Total iron ([2]; time 0.20 h) was -13.54 µg/dL and the Total iron ([2]; time 0.33 h) was 5.95 µg/dL. For the same substance, the Total iron ([2]; time 0.50 h) was 6.37 µg/dL, the Total iron ([2]; time 0.75 h) was 41.58 µg/dL and the Total iron ([2]; time 1.00 h) was 51.01 µg/dL. For the same substance, the Total iron ([2]; time 1.25 h) was 80.17 µg/dL, the Total iron ([2]; time 1.50 h) was 90.15 µg/dL and the Total iron ([2]; time 1.75 h) was 95.7 µg/dL. For the same substance, the Total iron ([2]; time 2.00 h) was 110.94 µg/dL, the “NTBI (free non transferrin bound iron)” value ([2]; time 0 min) was 0.000 µmol/L and the “NTBI (free non transferrin bound iron)” value ([2]; time 2 min) was -0.306 µmol/L. For the same substance, the “NTBI (free non transferrin bound iron)” value ([2]; time 6 min) was -0.215 µmol/L, the “NTBI (free non transferrin bound iron)” value ([2]; time 12 min) was 0.029 µmol/L and the “NTBI (free non transferrin bound iron)” value ([2]; time 20 min) was 0.067 µmol/L. The “NTBI (free non transferrin bound iron)” value ([2]; time 30 min) was 0.106 µmol/L, the “NTBI (free non transferrin bound iron)” value ([2]; time 45 min) was 0.448 µmol/L and the “NTBI (free non transferrin bound iron)” value ([2]; time 60 min) was 0.311 µmol/L. For the same substance, the “NTBI (free non transferrin bound iron)” value ([2]; time 75 min) was 1.191 µmol/L, the “NTBI (free non transferrin bound iron)” value ([2]; time 90 min) was 0.084 µmol/L and the “NTBI (free non transferrin bound iron)” value ([2]; time 105 min) was 0.806 µmol/L. For the same substance, the “NTBI (free non transferrin bound iron)” value ([2]; time 120 min) was 0.339 µmol/L, the “permeated divalent Fe” value ([3]; 50 mg/ml solution, in the presence of ascorbic acid, pH 2.6, after 3 hours) was “above 150 micrograms/square centimeter” and the “permeated divalent Fe” value ([3]; 50 mg/ml solution, in the presence of ascorbic acid, pH 2.6, after 4 hours) was “approximately 200 micrograms/square centimeter”. For the same substance, the “permeated divalent Fe” value ([3]; 350 mg/ml solution, in the presence of ascorbic acid, pH 4.4, after 3 hours) was “below 150 micrograms/square centimeter”, the “permeated divalent Fe” value ([3]; 350 mg/ml solution, in the presence of ascorbic acid, pH 4.4, after 4 hours) was “approximately 200 micrograms/square centimeter” and the “permeated divalent Fe” value ([3]; 400 mg/ml solution, in the absence of ascorbic acid, pH 4.4, after 3 hours) was “above 100 micrograms/square centimeter”. For the same substance, the “permeated divalent Fe” value ([3]; 400 mg/ml solution, in the absence of ascorbic acid, pH 4.4, after 6 hours) was “approximately 150 micrograms/square centimeter”, the “permeated divalent Fe” value ([3]; 600 mg/ml solution, in the absence of ascorbic acid, pH 4.4, after 3 hours) was “above 100 micrograms/square centimeter” and the “permeated divalent Fe” value ([3]; 600 mg/ml solution, in the absence of ascorbic acid, pH 4.4, after 6 hours) was “approximately 125 micrograms/square centimeter”. The “permeated divalent Fe” value ([3]; 1000 mg/ml solution, in the absence of ascorbic acid, pH 4.4, after 3 hours) was “approximately 50 micrograms/square centimeter” and the “permeated divalent Fe” value ([3]; 1000 mg/ml solution, in the absence of ascorbic acid, pH 4.4, after 5 hours) was “approximately 100 micrograms/square centimeter”.
